Data reported in patent EP0953355A1, “REMEDY FOR AUTOIMMUNE DISEASES” (Sankyo Company, Limited, priority 1996, dated 1997).

Key:
islet β cells = assay: Inhibitory effect on lymphocyte invasion (streptozotocin-induced autoimmunity to islet β cells); type: in vivo, DBA/2 mice; details: for islet cells invaded by lymphocytes in all mice: 0.1% in feed; for Degree of lymphocyte invasion 0 to 40% / Degree of lymphocyte invasion 40 to 60%: percentage of mice within this range, oral, streptozotocin 40 mg/kg i.p. for 5 days
Experimental: Streptozotocin was administered intraperitoneally for 5 days to 8-week-old DBA/2 mice at 40 mg/kg to induce autoimmunity of islet β cells. […] Mice in the control group were given only powdered feed during the same period.
(§1) Blood samples were collected from the tail vein before the start, during and on the final day of streptozotocin administration. The blood samples were centrifuged to obtain plasma, and the glucose levels of the obtained plasma were measured with a glucose analyzer (Sino-Test Co., Ltd.). In the figure, glucose levels (mg/dl) are plotted on the vertical axis, while time (days) is plotted on the horizontal axis. [drawing]
The mice used in the experiment were sacrificed following measurement of glucose levels on the final day of pioglitazone administration. The pancreas of each animal was excised and fixed with bouian solution. Thin tissue slices were prepared from the pancreas and the degree of lymphocyte invasion into islet cells was observed by a light microscope. […] Moreover, the degree of lymphocyte invasion was classified as either 0 to 40% or 40 to 60%. The number of mice classified within each range was illustrated in Table 3 as a percentage (%) relative to the total number of mice in the pioglitazone administration group and control groups.
Streptozotocin was administered intraperitoneally for 5 days to 8-week-old DBA/2 mice at 40 mg/kg to induce autoimmunity of islet β cells. […] Control mice were given only powdered feed during the same period.
as §1, with “(Sinotest).” for “(Sino-Test Co., Ltd.).”
The mice used in the experiment were sacrificed following measurement of glucose levels on the final day of drug administration. The pancreas of each animal was excised and fixed with bouian solution. Thin tissue slices were prepared from the pancreas and the degree of lymphocyte invasion into islet cells was observed by a light microscope. […] Moreover, the degree of lymphocyte invasion of each mouse was classified as either 0 to 40% or 40 to 60%.

Lewis rats = assay: Inhibitory effect on bone destruction induced by adjuvant arthritis; type: in vivo; details: for Bone Destruction Score (points): right hind paw, day 21, maximum score 8, groups of 5; for Bone Destruction Inhibition Rate (%): versus control group; for bone destruction compared with the control group / inhibition of bone destruction as compared with the control group: Wilcoxon test
Experimental: The inhibitory effect was determined in a similar manner to that of Winder, et al. (Arthritis Rheum., Vol. 12, p. 472, 1969). Using Lewis rats (females, age 8-10 weeks, body weights: 160-200 g, Japan Charles River) in groups of 5 each, adjuvant (heat-killed Mycobacterium butyricum)was injected intradermally into the right hind paw of each rat at 100 µg/0.05 ml/paw to induce arthritis. The rats were orally administered troglitazone at 0.2%, pioglitazone at 0.05% and BRL-49653 at 0.005%, respectively, by mixing in powdered feed until day 20 taking the day of injection of adjuvant to be day 0. Rats in a control group were given powdered feed only during the same period. The rats were sacrificed on day 21. After excising the right hind paw (the injected paw), soft X-rays were taken of each paw to observe and score the state of bone destruction. Bone destruction was scored by evaluating into 5 ranks consisting of 0, 1, 2, 3 and 4, assigning 0 points in the absence of bone destruction (normal) and increasing scores depending on the state of joint destruction, bone destruction, deformation and osteophyte formation. The worst state of such bone disorders was assigned a score of 4. The bone disorders were scored at two locations, the calcaneus and the location extending from the tarsal bones to the metatarsal bones. Thus, the score for each animal was determined by calculating the total score for the two locations and the maximum score was 8 points.
The inhibitory effect was determined according to the methods of Winder, et al. (Arthritis Rheum., Vol. 12, p. 472, 1969). Using Lewis rats (females, age 8-10 weeks, body weights: 160 to 200 g, Japan Charles River) in groups of 5 each, adjuvant (heat-killed Mycobacterium butyricum)was injected intradermally into the sole of the right hind paw of each rat at 100 µg/0.05 ml/paw to induce arthritis. The rats were orally administered Compound A at 0.1% and Compound B at 0.1%, respectively, by mixing in powdered feed until day 20 taking the day of injection of adjuvant to be day 0. Rats in a control group were given powdered feed only during the same period. The rats were sacrificed on day 21. After excising the right hind paw (the injected paw), soft X-rays were taken of each paw to observe and score the state of bone destruction. Bone destruction was scored by evaluating into 5 ranks consisting of 0, 1, 2, 3 and 4, assigning 0 points in the absence of bone destruction (normal) and increasing scores depending on the state of joint destruction, bone destruction, deformation and osteophyte formation. The worst state of bone destruction was assigned a score of 4. Bone destruction was scored at two locations, the calcaneus and the location extending from the tarsal bones to the metatarsal bones. Thus, the score for each animal was determined by calculating the total score for the two locations and the maximum score was 8 points.

ddY mice = type: in vivo; details: 300 mg/kg oral, three ddY mice (males), observed for 5 days
Experimental: Acute toxicity was determined in accordance with conventional methods. […] 2, 3,4 and 10, all acute toxicities of these compounds were determined to be 300 mg/kg and more after oral administration of them.

[1] = Example 4, from Fig. 3 (plasma glucose levels) and Table 4
[2] = 0.1% in F2 powdered feed (BRL-49653: 125 mg/kg/day, Compound A: 94 mg/kg/day), 31 days
[3] = Example 5, 0.1% in powdered feed until day 20
[4] = 0.2% in F2 powdered feed (236 mg/kg/day), 38 days
[5] = Example 2, in powdered feed until day 20: troglitazone 0.2%, pioglitazone 0.05%, BRL-49653 0.005%
[6] = 0.2% in F2 powdered feed (240 mg/kg/day), 38 days

How did the “islet cells invaded by lymphocytes in all mice” value (islet β cells; Example 4, 31 days) turn out when `CC(=NOCCOc1ccc(CC2SC(=O)NC2=O)cc1)c1ccc(-c2ccccn2)cc1` (centres unmarked) [Compound A, 5-[4-[2-[[[1-[4-(2-pyridyl)phenyl]ethylidene]amino]oxy]ethoxy]benzyl]thiazolidine-2,4-dione] was run?
The value was “less than 40%”.

And the “onset of autoimmune disease” value (islet β cells; [1])?
The value was “suppresses the onset of autoimmune disease”.

And the “Degree of lymphocyte invasion 0 to 40%” value (islet β cells; [2])?
Its value is 100%.

And the “Degree of lymphocyte invasion 40 to 60%” value (islet β cells; [2])?
The value was 0%.

And the “Bone Destruction Score (points)” value (Lewis rats; [3])?
The value was 6.6 ± 0.7 points.

And the “Bone Destruction Inhibition Rate (%)” value (Lewis rats; [3])?
Its value is 17.5%.

What about the “bone destruction compared with the control group” value (Lewis rats; Example 5) of the same compound?
Its value is “tended to be inhibited”.

How did the “Bone Destruction Score (points)” value (Lewis rats; [3]) turn out when `COc1ccc2nc(COc3ccc(CC4SC(=O)NC4=O)cc3)n(C)c2c1` (centres unmarked) [Compound B, 5-[4-(6-methoxy-1-methylbenzimidazol-2-ylmethoxy)benzyl]thiazolidine-2,4-dione] was run?
The value was 6.6 ± 0.8 points.

What about the “Bone Destruction Inhibition Rate (%)” value (Lewis rats; [3]) of the same compound?
Its value is 17.5%.

And the “bone destruction compared with the control group” value (Lewis rats; Example 5)?
Its value is “tended to be inhibited”.

Which results are given for `CCc1ccc(CCOc2ccc(CC3SC(=O)NC3=O)cc2)nc1` (centres unmarked) [Pioglitazone, 5-{4-[2-(5-ethyl-2-pyridyl)ethoxy]benzyl}-2,4-thiazolidinedione]?
degree of lymphocyte invasion into islet cells in all mice (islet β cells; Example 3, 0.2% in feed (236 mg/kg/day), 38 days): ≤ 40%; onset of autoimmune disease (islet β cells; Example 3, on the basis of Fig. 2 (plasma glucose levels) and Table 3): suppresses the onset of autoimmune disease; Degree of lymphocyte invasion 0 to 40% (islet β cells; [4]): 100%; Degree of lymphocyte invasion 40 to 60% (islet β cells; [4]): 0%; inhibition of bone destruction as compared with the control group (Lewis rats; Example 2): exhibited inhibition of bone destruction; Bone Destruction Score (points) (Lewis rats; [5]): 4.4 ± 1.0 points; Bone Destruction Inhibition Rate (%) (Lewis rats; [5]): 40.5%

With `Cc1c(C)c2c(c(C)c1O)CCC(C)(COc1ccc(CC3SC(=O)NC3=O)cc1)O2` (centres unmarked) [Troglitazone, 5-[4-(6-hydroxy-2,5,7,8-tetramethylchroman-2-ylmethoxy)benzyl]thiazolidine-2,4-dione] as the compound, how does the “degree of lymphocyte invasion into islet cells in all mice” value (islet β cells; Example 1, 0.2% in feed (240 mg/kg/day), 38 days) read?
Its value is ≤ 40%.

And the “onset of autoimmune disease” value (islet β cells; Example 1, on the basis of Fig. 1 (plasma glucose levels) and Table 1)?
The value was “suppresses the onset of autoimmune disease”.

What about the “Degree of lymphocyte invasion 0 to 40%” value (islet β cells; [6]) of the same compound?
Its value is 100%.

What about the “Degree of lymphocyte invasion 40 to 60%” value (islet β cells; [6]) of the same compound?
Its value is 0%.

And the survival (ddY mice)?
Its survival is “All animals survived”.

And the “inhibition of bone destruction as compared with the control group” value (Lewis rats; Example 2)?
Its value is “significant inhibition of bone destruction”.

What about the “Bone Destruction Score (points)” value (Lewis rats; [5]) of the same compound?
The value was 5.4 ± 0.2 points.

And the “Bone Destruction Inhibition Rate (%)” value (Lewis rats; [5])?
Its value is 27.0%.

With `CN(CCOc1ccc(CC2SC(=O)NC2=O)cc1)c1ccccn1` (centres unmarked) [BRL-49653, 5-{4-[2-(N-methyl-N-(2-pyridyl)amino)ethoxy]benzyl}thiazolidine-2,4-dione] as the compound, how does the “islet cells invaded by lymphocytes in all mice” value (islet β cells; Example 4, 31 days) read?
Its value is “less than 40%”.

What about the “onset of autoimmune disease” value (islet β cells; [1]) of the same compound?
Its value is “suppresses the onset of autoimmune disease”.

What about the “Degree of lymphocyte invasion 0 to 40%” value (islet β cells; [2]) of the same compound?
The value was 100%.

And the “Degree of lymphocyte invasion 40 to 60%” value (islet β cells; [2])?
Its value is 0%.

What about the “inhibition of bone destruction as compared with the control group” value (Lewis rats; Example 2) of the same compound?
Its value is “exhibited inhibition of bone destruction”.

And the “Bone Destruction Score (points)” value (Lewis rats; [5])?
The value was 4.8 ± 1.2 points.

And the “Bone Destruction Inhibition Rate (%)” value (Lewis rats; [5])?
The value was 35.1%.
